Patent US9796711B2, “Substituted pyrazolo[3,4-b]pyridin-6-carboxylic acids and method of use” (AbbVie S.àr.l., priority 2015, dated 2017)

How the values were obtained:
ΔF508-CFTR [1] = biological target: T1, ΔF508-CFTR (Homo sapiens, UniProt P13569, DEL508-508); assay: CFTR cell surface levels using HRP-tagged ΔF508-CFTR expressing CFBE cells, in the presence of a co-corrector; assay type: cell-based; conditions: HRP-tagged ΔF508-CFTR expressing CFBE cells, in the presence of 3 μM co-corrector; for EC50: read-out: EC50
T1 construct: host or cells: CFBE41o-, doxycycline-inducible
T1 sequence (P13569 with tags, fused parts or gaps DEL508-508): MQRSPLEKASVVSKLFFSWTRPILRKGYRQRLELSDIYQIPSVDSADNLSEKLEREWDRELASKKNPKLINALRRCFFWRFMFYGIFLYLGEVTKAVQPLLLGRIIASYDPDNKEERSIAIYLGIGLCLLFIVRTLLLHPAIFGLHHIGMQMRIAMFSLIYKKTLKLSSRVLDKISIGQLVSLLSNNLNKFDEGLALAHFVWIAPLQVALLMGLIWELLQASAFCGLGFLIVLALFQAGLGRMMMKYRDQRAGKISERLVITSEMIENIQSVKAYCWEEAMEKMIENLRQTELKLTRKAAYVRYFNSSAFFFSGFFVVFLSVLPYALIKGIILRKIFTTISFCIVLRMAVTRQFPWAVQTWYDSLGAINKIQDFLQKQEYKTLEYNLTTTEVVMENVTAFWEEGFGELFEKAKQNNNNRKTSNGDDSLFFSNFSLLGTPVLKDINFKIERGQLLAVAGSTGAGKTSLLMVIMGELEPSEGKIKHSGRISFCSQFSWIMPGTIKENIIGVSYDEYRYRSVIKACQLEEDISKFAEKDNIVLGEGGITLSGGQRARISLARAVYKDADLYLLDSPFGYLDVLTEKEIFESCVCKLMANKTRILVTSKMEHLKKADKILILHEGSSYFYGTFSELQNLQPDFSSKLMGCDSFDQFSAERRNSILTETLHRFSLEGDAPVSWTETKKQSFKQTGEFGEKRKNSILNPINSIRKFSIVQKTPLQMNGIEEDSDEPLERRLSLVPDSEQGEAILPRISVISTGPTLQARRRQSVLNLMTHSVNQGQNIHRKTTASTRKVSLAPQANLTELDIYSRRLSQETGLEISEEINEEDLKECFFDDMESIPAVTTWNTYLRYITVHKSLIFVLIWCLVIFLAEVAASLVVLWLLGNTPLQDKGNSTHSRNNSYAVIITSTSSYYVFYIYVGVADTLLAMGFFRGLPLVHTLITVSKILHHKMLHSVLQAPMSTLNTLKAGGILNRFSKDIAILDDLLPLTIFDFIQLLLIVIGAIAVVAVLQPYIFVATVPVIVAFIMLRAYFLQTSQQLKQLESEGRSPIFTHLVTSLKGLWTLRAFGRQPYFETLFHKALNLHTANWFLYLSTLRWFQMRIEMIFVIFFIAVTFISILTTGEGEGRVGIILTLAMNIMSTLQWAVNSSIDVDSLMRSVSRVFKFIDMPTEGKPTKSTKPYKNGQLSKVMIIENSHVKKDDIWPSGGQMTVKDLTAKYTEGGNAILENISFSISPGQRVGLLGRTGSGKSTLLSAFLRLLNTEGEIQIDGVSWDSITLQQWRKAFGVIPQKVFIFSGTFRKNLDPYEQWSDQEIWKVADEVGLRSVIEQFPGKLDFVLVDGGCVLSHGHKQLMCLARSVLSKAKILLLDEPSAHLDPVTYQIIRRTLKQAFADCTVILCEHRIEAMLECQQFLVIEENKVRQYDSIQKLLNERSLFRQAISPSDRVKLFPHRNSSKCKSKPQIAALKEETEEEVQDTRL
Method in brief: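 Cells were seeded with 0.5 μg/mL doxycycline and held 68 h at 37 °C. Test compounds plus 3 μM co-corrector (final 0.1% DMSO) were then added for 20 h at 33 °C. Washed cells received HRP substrate, and luminescence was normalized between DMSO and 3 μM co-corrector controls.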

ΔF508-CFTR [2] = biological target: T1, ΔF508-CFTR; assay: CFTR cell surface levels using HRP-tagged ΔF508-CFTR expressing CFBE cells, intrinsic corrector capacity; assay type: cell-based; conditions: HRP-tagged ΔF508-CFTR expressing CFBE cells, intrinsic corrector capacity (no co-corrector), 33° C., 20 hours; for EC50: read-out: EC50
Method in brief: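 Here the cells express ΔF508-CFTR with horseradish peroxidase inserted in extracellular loop 4, so only rescued channel at the surface gives luminescent signal. Compounds act on their own, 20 h at the reduced temperature of 33 °C; values are percent activity relative to DMSO and a 3 μM corrector.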

Compound | % Activation (ΔF508-CFTR [1]) [%] | EC50 (ΔF508-CFTR [1]) [µM] | % Activation (ΔF508-CFTR [2]) [%] | EC50 (ΔF508-CFTR [2]) [µM]
CO[C@H]1CCN(c2cc(C(=O)O)nc3c2c(C2CCC2)nn3-c2ccccc2)C1 [compound 512, 3-cyclobutyl-4-[(3S)-3-methoxypyrrolidin-1-yl]-1-phenyl-1H-pyrazolo[3,4-b]pyridine-6-carboxylic acid] | 286.4 | 1.42 | 103 | 1.17
O=C(O)c1cc(N2CC(OCC(F)F)C2)c2c(C3CCC3)nn(-c3ccccc3)c2n1 [compound 513, 3-cyclobutyl-4-[3-(2,2-difluoroethoxy)azetidin-1-yl]-1-phenyl-1H-pyrazolo[3,4-b]pyridine-6-carboxylic acid] | 349.6 | 0.472 | 141.7 | 0.371
O=C(O)c1cc(N2C[C@@H](F)C[C@@H]2CO)c2c(C3CCC3)nn(-c3ccccc3)c2n1 [compound 514, 3-cyclobutyl-4-[(2R,4S)-4-fluoro-2-(hydroxymethyl)pyrrolidin-1-yl]-1-phenyl-1H-pyrazolo[3,4-b]pyridine-6-carboxylic acid] | 178.2 | 3.33 | 37.34 | 3.34
O=C(O)c1cc(N2CCN3C[C@@H](F)C[C@H]3C2)c2c(C3CCC3)nn(-c3ccccc3)c2n1 [compound 515, 3-cyclobutyl-4-[(7S,8aS)-7-fluorohexahydropyrrolo[1,2-a]pyrazin-2(11/)-yl]-1-phenyl-1H-pyrazolo[3,4-b]pyridine-6-carboxylic acid] | 173.5 | 3.33 | 15.59 | > 10
CN1C(=O)CO[C@H]2CN(c3cc(C(=O)O)nc4c3c(C3CCC3)nn4-c3ccccc3)C[C@@H]21 [compound 516, 3-cyclobutyl-4-[(4aS,7aS)-4-methyl-3-oxohexahydropyrrolo[3,4-b][1,4]oxazin-6 (2H)-yl]-1-phenyl-1H-pyrazolo[3,4-b]pyridine-6-carboxylic acid] | 275.5 | 0.723 | 123.4 | 1.11
O=C(O)c1cc(N2CCC(F)(CO)CC2)c2c(C3CCC3)nn(-c3ccccc3)c2n1 [compound 517, 3-cyclobutyl-4-[4-fluoro-4-(hydroxymethyl)piperidin-1-yl]-1-phenyl-1H-pyrazolo[3,4-b]pyridine-6-carboxylic acid] | 303.2 | 0.575 | 82.63 | 0.646
O=C(O)c1cc(N2CCC3(CCCO3)C2)c2c(C3CCC3)nn(-c3ccccc3)c2n1 (centres unmarked) [compound 518, 3-cyclobutyl-4-(1-oxa-7-azaspiro[4.4]nonan-7-yl)-1-phenyl-1H-pyrazolo[3,4-b]pyridine-6-carboxylic acid] | 237 | 0.531 | 62.95 | 0.371
CS(=O)(=O)NC1CCN(c2cc(C(=O)O)nc3c2c(C2CCC2)nn3-c2ccccc2)CC1 [compound 519, 3-cyclobutyl-4-{4-[(methanesulfonyl)amino]piperidin-1-yl}-1-phenyl-1H-pyrazolo[3,4-b]pyridine-6-carboxylic acid] | 340.6 | 3.33 | 149.3 | 3.34
O=C(O)c1cc(N2CCC(C(F)CO)CC2)c2c(C3CCC3)nn(-c3ccccc3)c2n1 (centres unmarked) [compound 520, 3-cyclobutyl-4-[4-(1-fluoro-2-hydroxyethyl)piperidin-1-yl]-1-phenyl-1H-pyrazolo[3,4-b]pyridine-6-carboxylic acid] | 450.25 | 0.241 | 213.9 | 0.583
COCC1(C)CN(c2cc(C(=O)O)nc3c2c(C2CCC2)nn3-c2ccccc2)C1 [compound 521, 3-cyclobutyl-4-[3-(methoxymethyl)-3-methylazetidin-1-yl]-1-phenyl-1H-pyrazolo[3,4-b]pyridine-6-carboxylic acid] | 216.55 | 0.29 | 58.57 | 0.488
CO[C@@H]1CCN(c2cc(C(=O)O)nc3c2c(C2CCC2)nn3-c2ccccc2)C1 [compound 522, 3-cyclobutyl-4-[(3R)-3-methoxypyrrolidin-1-yl]-1-phenyl-1H-pyrazolo[3,4-b]pyridine-6-carboxylic acid] | 294.1 | 1.08 | 114 | 0.479
CS(=O)(=O)N1CCN(c2cc(C(=O)O)nc3c2c(C2CCC2)nn3-c2ccccc2)CC1 [compound 523, 3-cyclobutyl-4-[4-(methanesulfonyl)piperazin-1-yl]-1-phenyl-1H-pyrazolo[3,4-b]pyridine-6-carboxylic acid] | 320.1 | 0.63 | 136.2 | 2.85
COCCN(CCOC)c1ccc(-c2cc(C(=O)O)nc3c2c(C(C)C)nn3-c2ccnc(N3CCOCC3)c2)cn1 [compound 524, 4-{6-[bis(2-methoxyethyl)amino]pyridin-3-yl}-1-[2-(morpholin-4-yl)pyridin-4-yl]-3-(propan-2-yl)-1H-pyrazolo[3,4-b]pyridine-6-carboxylic acid] | 354.25 | 0.261 | 134.7 | 0.454
COCC1CCN(c2cc(C(=O)O)nc3c2c(C(C)C)nn3-c2ccnc(N3CCOCC3)c2)CC1 [compound 525, 4-[4-(methoxymethyl)piperidin-1-yl]-1-[2-(morpholin-4-yl)pyridin-4-yl]-3-(propan-2-yl)-1H-pyrazolo[3,4-b]pyridine-6-carboxylic acid] | 311.3 | 0.936 | 232.2 | 0.416
COCC1(OC)CCN(c2cc(C(=O)O)nc3c2c(C2CCC2)nn3-c2ccccc2)CC1 [compound 526, 3-cyclobutyl-4-[4-methoxy-4-(methoxymethyl)piperidin-1-yl]-1-phenyl-1H-pyrazolo[3,4-b]pyridine-6-carboxylic acid] | 284.5 | 0.37 | 97.7 | 0.406
O=C(O)c1cc(N2CC[C@H](F)C2)c2c(C3CCC3)nn(-c3ccccc3)c2n1 [compound 527, 3-cyclobutyl-4-[(3S)-3-fluoropyrrolidin-1-yl]-1-phenyl-1H-pyrazolo[3,4-b]pyridine-6-carboxylic acid] | 291.2 | 1.03 | 100.1 | 1.16
O=C(O)c1cc(N2CC(F)(F)C2)c2c(C3CCC3)nn(-c3ccccc3)c2n1 [compound 528, 3-cyclobutyl-4-(3,3-difluoroazetidin-1-yl)-1-phenyl-1H-pyrazolo[3,4-b]pyridine-6-carboxylic acid] | 209.2 | 1.94 | 80.74 | 3.33
O=C(O)c1cc(N2CC(N3CCOC3=O)C2)c2c(C3CCC3)nn(-c3ccccc3)c2n1 [compound 529, 3-cyclobutyl-4-[3-(2-oxo-1,3-oxazolidin-3-yl)azetidin-1-yl]-1-phenyl-1H-pyrazolo[3,4-b]pyridine-6-carboxylic acid] | 126.7 | > 10 | 5.039 | > 10
CCC1(F)CN(c2cc(C(=O)O)nc3c2c(C2CCC2)nn3-c2ccccc2)C1 [compound 530, 3-cyclobutyl-4-(3-ethyl-3-fluoroazetidin-1-yl)-1-phenyl-1H-pyrazolo[3,4-b]pyridine-6-carboxylic acid] | 254.15 | 0.542 | 90.17 | 0.718
O=C(O)c1cc(N2CCOC(CO)C2)c2c(C3CCC3)nn(-c3ccccc3)c2n1 (centres unmarked) [compound 531, 3-cyclobutyl-4-[2-(hydroxymethyl)morpholin-4-yl]-1-phenyl-1H-pyrazolo[3,4-b]pyridine-6-carboxylic acid] | 223.4 | 1.45 | 91.66 | 3.33
COCCOCC1(F)CCN(c2cc(C(=O)O)nc3c2c(C2CCC2)nn3-c2ccccc2)C1 (centres unmarked) [compound 532, 3-cyclobutyl-4-{3-fluoro-3-[(2-methoxyethoxy)methyl]pyrrolidin-1-yl}-1-phenyl-1H-pyrazolo[3,4-b]pyridine-6-carboxylic acid] | 271.77 | 0.349 | 107.05 | 0.707
CN(c1cc(C(=O)O)nc2c1c(C1CCC1)nn2-c1ccccc1)[C@H]1C[C@@H](O)C1 [compound 533, 3-cyclobutyl-4-[(cis-3-hydroxycyclobutyl)(methyl)amino]-1-phenyl-1H-pyrazolo[3,4-b]pyridine-6-carboxylic acid] | 315.85 | 1.23 | 114.5 | 3.21
O=C(O)c1cc(N2CC3(CCOC3)C2)c2c(C3CCC3)nn(-c3ccccc3)c2n1 [compound 534, 3-cyclobutyl-4-(6-oxa-2-azaspiro[3.4]octan-2-yl)-1-phenyl-1H-pyrazolo[3,4-b]pyridine-6-carboxylic acid] | 281.95 | 0.893 | 111 | 3.33
